For assay [1], the system named is Anesthetized Dogs. The experiment in a line: Intraurethral pressure (IUP) in anesthetized dogs. The conditions noted are these: for Mean Selectivity Ratio MAP ED20/IUP ED5 / Mean IUP ED5 / ED (5 mmHg IUP increase): anesthetized female dogs; for Mean Selectivity Ratio MAP ED20/IUP ED5 / ED (5 mmHg IUP increase): iv; for Mean IUP ED5 / ED (5 mmHg IUP increase): iv dose causing a maximum increase in IUP of 5 mm Hg; for Mean IUP ED5: maleate; for ED (5 mmHg IUP increase): Canis lupus familiaris, read-out: Mean IUP ED5. The format is in vivo, dog. An excerpt: In vivo Functional Assays-Assessment of Intrurethral Pressure (IUP) and Mean Arterial Pressure (MAP) in Anesthetized Dogs
Female dogs (Marshall Farms, North Rose, N.Y.) greater that 2 years of age and weighing between 12 and 15 kg were used in these studies. At least 2 weeks prior to any agonist dosing, dogs were instrumented for the chronic measurement of arterial blood pressure by implanting a telemetry transducer/transmitter (TA11PA-C40, Data Sciences International, St. Paul, Minn.) into a carotid artery.
On the test day, dogs fasted since the previous afternoon were pre-anesthetized with thiopental sodium 15 mg/kg i.v. (Pentothal™, Abbott) and intubated. Anesthesia was maintained by allowing the dog to spontaneously breathe a mixture of isoflurane (2.5 to 3 volume %) and oxygen delivered by a Narkomed Standard anesthesia system (North American Drager, Telford, Pa.). An Abbocath-T™ i.v. catheter (18-G, Abbott) was inserted into the cephalic vein for the administration of agonists. A telemetry receiver (RA1310, DataSciences) was placed under the head of each dog and was interfaced to a computerized data acquisition system (Modular Instruments Inc.(MI2), Malvern, Pa.) which allowed for the continuous calibrated recording of arterial blood pressure which was electronically filtered to determine its mean value (MAP).
Dogs with chronic telemetry implants anesthetized as described above were placed in dorsal recumbency and a balloon catheter was inserted into the urethral orifice and advanced approximately 15 cm until the tip was well inside the bladder. The balloon was then inflated with 1 ml of room air and the catheter slowly withdrawn until resistance (corresponding to the bladder neck) was evident. The balloon was then deflated and the catheter withdrawn an additional 2 cm. The balloon was then reinflated and its catheter port connected to a Gould Statham P23Dd pressure transducer interfaced to a computerized data acquisition system (Modular Instruments, Inc., Malvern, Pa.) for the measurement of intraurethral pressure. Increasing iv doses of test agonists were administered and the maximum effect of each dose on IUP was recorded. The effect of each dose was allowed to return to baseline before the next dose was given.
From the resulting dose response curve, an ED5 value, for the dose causing a maximum increase in IUP of 5 mm Hg, could be estimated. An ED20 value for the dose causing a maximum increase in MAP of 20 mm Hg could also be estimated. A selectivity ratio of MAP ED20 vs. IUP ED5 was calculated.

For assay [2], the system named is Anesthetized Dogs. The assay is described as follows: Intraurethral pressure (IUP) in anesthetized dogs. The format is in vivo, dog. Particulars: Canis lupus familiaris; iv dose causing a maximum increase in IUP of 5 mm Hg, anesthetized female dogs; read-out: Mean IUP ED5.
Assay [3] concerns the target T1, α1d (rat receptor expressed in mouse fibroblasts) (Rattus norvegicus, UniProt P23944).
T1 construct: expressed in transfected cells; host or cells: mouse fibroblasts
T1 sequence (P23944 1-561): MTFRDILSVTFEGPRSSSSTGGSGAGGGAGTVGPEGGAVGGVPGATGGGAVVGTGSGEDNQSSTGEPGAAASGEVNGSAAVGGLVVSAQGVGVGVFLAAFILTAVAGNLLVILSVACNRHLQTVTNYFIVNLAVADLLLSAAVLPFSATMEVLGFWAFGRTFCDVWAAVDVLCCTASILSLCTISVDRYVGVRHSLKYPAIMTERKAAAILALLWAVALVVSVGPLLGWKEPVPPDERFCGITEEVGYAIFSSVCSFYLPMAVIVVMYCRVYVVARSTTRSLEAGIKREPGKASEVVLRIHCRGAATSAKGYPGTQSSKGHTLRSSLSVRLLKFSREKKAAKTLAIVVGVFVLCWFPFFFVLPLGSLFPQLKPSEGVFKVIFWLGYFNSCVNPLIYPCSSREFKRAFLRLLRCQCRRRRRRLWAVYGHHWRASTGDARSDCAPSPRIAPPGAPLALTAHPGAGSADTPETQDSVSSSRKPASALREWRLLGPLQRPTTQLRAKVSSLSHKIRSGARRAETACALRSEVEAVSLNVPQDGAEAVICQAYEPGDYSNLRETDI
The assay is described as follows: Radioligand binding with [3H]-prazosin, α1d. The conditions noted are these: rat receptor expressed in mouse fibroblasts, [3H]-prazosin. A digest of the protocol:
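Radioligand binding with [3H]-prazosin: α1A from rat submaxillary gland; α1b hamster receptor and α1d rat receptor, each expressed in mouse fibroblasts.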

In the next assay the target is T2, α1A (rabbit urethra) (Oryctolagus cuniculus, UniProt O02824).
T2 construct: tested for α1A functional activity using rabbit urethra; from tissue; host or cells: rabbit urethra
T2 sequence (O02824 1-466): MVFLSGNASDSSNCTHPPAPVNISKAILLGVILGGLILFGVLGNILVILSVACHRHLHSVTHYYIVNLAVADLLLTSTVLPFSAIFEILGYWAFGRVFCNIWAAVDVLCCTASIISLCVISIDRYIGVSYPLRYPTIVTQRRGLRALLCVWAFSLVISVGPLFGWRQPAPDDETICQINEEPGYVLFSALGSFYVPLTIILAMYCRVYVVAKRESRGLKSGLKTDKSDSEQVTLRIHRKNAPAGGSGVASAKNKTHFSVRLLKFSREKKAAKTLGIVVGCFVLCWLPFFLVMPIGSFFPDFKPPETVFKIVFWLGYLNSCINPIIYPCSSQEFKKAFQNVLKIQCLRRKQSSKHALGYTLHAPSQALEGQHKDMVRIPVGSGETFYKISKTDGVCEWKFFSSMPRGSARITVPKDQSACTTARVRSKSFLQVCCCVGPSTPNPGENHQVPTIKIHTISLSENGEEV
The assay is described as follows: Agonist contraction of smooth muscle tissue, rabbit urethra. The format is cell-based. Particulars: rabbit urethra; read-out: Agonist Tissue Response (pD2) α1A (rab ureth) (converted). The protocol: Most of the compounds were tested for α1A functional activity using rabbit urethra as follows. Female New Zealand white rabbits (2.0-3.5 Kg) were sedated with CO2 and decapitated. […] Subsequent experimental conditions were as described above for the other tissues. Agonist concentration response curves were cumulative except for the vas deferens assay in which the transient response made such measurements impractical.

Setting [4] is: Radioligand Binding Ki α1d (Rat).
[5] abbreviates: read-out: Radioligand Binding Ki α1d (Rat).

Molecules are shown by their SMILES. Structures can show the parent of a compound that is named as a salt. Where two headings read alike, the source gives them in different places. A value given as a limit tells only on which side of the number the result lay.

Consider `CCS(=O)(=O)Nc1cccc(Cc2c[nH]cn2)c1C.O=C(O)/C=C\C(=O)O` [Example 29, N-[3-(1H-imidazol-4-ylmethyl)-2-methylphenyl]ethanesulfonamide, maleate], for which, in the assay with Anesthetized Dogs [1], the “Mean Selectivity Ratio MAP ED20/IUP ED5” value amounted to 5.6. Besides, the “selectivity for increasing intraurethral pressure over arterial pressure as compared to N-(3-(1H-imidazol-4-ylmethyl)-2-methylphenyl]methanesulfonamide)” value in the assay with Anesthetized Dogs [1] (in vivo, dogs) is given as over 3 times. Also, the ED (5 mmHg IUP increase) with Anesthetized Dogs [2] was 0.0411 µmol/kg. In assay [3] (setting [4]), the affinity, expressed as Ki, was 678 nM.

In the case of `CN(c1cccc2c1CCCC2c1c[nH]cn1)S(C)(=O)=O` (stereo not drawn) [Example 15, N-[5,6,7,8-tetrahydro-5-(1H-imidazol-4-yl)-1-naphthalenyl]-N-methylmethanesulfonmamide, maleate], at α1A (rabbit urethra), the EC50 is 692 nM. Also, the “Mean Selectivity Ratio MAP ED20/IUP ED5” value in the assay with Anesthetized Dogs [1] turned out to be 2.5. The Ki (usually a dissociation constant, usually derived from enzyme kinetics or from competition with a known ligand) in assay [3] (setting [5]) was 701 nM.

As for `CC(c1cccc(NS(C)(=O)=O)c1)c1c[nH]cn1.O=C(O)/C=C\C(=O)O` (stereo not drawn) [Example 31, N-[3-[1-(1H-imidazol-4-yl)ethyl]phenyl]methanesulfonamide, maleate], the EC50 on α1A (rabbit urethra) was 4170 nM. The “Mean Selectivity Ratio MAP ED20/IUP ED5” value in the assay on Anesthetized Dogs [1] was determined as 3.4. The ED (5 mmHg IUP increase) with Anesthetized Dogs [2] stood at 0.0916 µmol/kg. Besides, the inhibition constant Ki in assay [3] (setting [4]) came out at 685 nM.

Consider `CS(=O)(=O)Nc1cccc(Cc2c[nH]cn2)c1.O=C(O)/C=C\C(=O)O` [Example 21, N-[3-(1H-imidazol-4-ylmethyl)phenyl]methanesulfonamide, maleate], for which, on α1A (rabbit urethra), the EC50 is 1860 nM. The ED (5 mmHg IUP increase) with Anesthetized Dogs [2] was 0.0227 µmol/kg. The same compound yielded a Ki in assay [3] (setting [4]) of 212 nM.

Turning to `CCS(=O)(=O)Nc1cccc2c1CCCC2c1c[nH]cn1.O=C(O)/C=C\C(=O)O` (single isomer, unassigned; (-)) [Example 34, (−)-N-[5-(1H-imidazol-4-yl)-5,6,7,8-tetrahydro-1-naphthalenyl]ethanesulfonamide, maleate], the EC50 at α1A (rabbit urethra) is 28200 nM. Moreover, the “Mean IUP ED5” value in the assay with Anesthetized Dogs [1] was over 1000 nmol/kg. For the same compound, in assay [3] (setting [5]), the Ki stood at 842 nM.

For the compound `O=C(Nc1cccc2c1CCCC2c1c[nH]cn1)C(F)(F)F` (stereo not drawn) [Example 17, 2,2,2-trifluoro-N-[5-(1H-imidazol-4-yl)-5,6,7,8-tetahydro-1-naphthalenyl]acetamide, maleate], at α1A (rabbit urethra), the EC50 is 525 nM. In the assay on Anesthetized Dogs [1], the “Mean Selectivity Ratio MAP ED20/IUP ED5” value amounted to 1.1. Besides, in assay [3] (setting [5]), the Ki is 3300 nM.

With `Cc1c(Cc2c[nH]cn2)cccc1NS(C)(=O)=O.O=C(O)/C=C\C(=O)O` [Example 28, N-[3-(1H-imidazol-4-ylmethyl)-2-methylphenyl]methanesulfonamide, maleate], the EC50 on α1A (rabbit urethra) is 5620 nM. In addition, the “Mean Selectivity Ratio MAP ED20/IUP ED5” value in the assay on Anesthetized Dogs [1] amounted to 2.1. Further, in the assay on Anesthetized Dogs [2], the ED (5 mmHg IUP increase) amounted to 0.0771 µmol/kg. For the same compound, the Ki in assay [3] (setting [4]) is 815 nM.

As to `COc1ccc(NS(C)(=O)=O)c2c1C(c1c[nH]cn1)CCC2` (stereo not drawn) [Example 26, N-[5,6,7,8-tetrahydro-(1H-imidazol-4-yl)-4-methoxyy-1-naphthalenyl]methanesulfonamide, maleate], the EC50 at α1A (rabbit urethra) is 15500 nM. Besides, the “Mean Selectivity Ratio MAP ED20/IUP ED5” value in the assay on Anesthetized Dogs [1] came out at 2.6. In addition, the ED (5 mmHg IUP increase) in the assay on Anesthetized Dogs [2] was 0.653 µmol/kg.

For the compound `C=C(c1cccc(NS(=O)(=O)CC)c1)c1c[nH]cn1` [Example 45, N-{3-[1-(1H-imidazol-4-yl)vinyl]phenyly}ethanesulfonamide, maleate], the EC50 on α1A (rabbit urethra) is 2000 nM. For the same compound, the “Mean Selectivity Ratio MAP ED20/IUP ED5” value in the assay with Anesthetized Dogs [1] worked out at 2.6. This compound registered a Ki in assay [3] (setting [4]) of 971 nM.

For `CCS(=O)(=O)Nc1cccc2c1CCCC2c1c[nH]cn1.O=C(O)/C=C\C(=O)O` (stereo not drawn) [Example 12, N-[5-(1H-imidazol-4-yl)-5,6,7,8-tetrahydro-1-naphthalenyl]ethanesulfonamide, maleate], the EC50 on α1A (rabbit urethra) was 631 nM. In addition, in the assay on Anesthetized Dogs [1], the ED (5 mmHg IUP increase) turned out to be 0.0107 µmol/kg and the “Mean Selectivity Ratio MAP ED20/IUP ED5” value is 7.6. The Ki in assay [3] (setting [5]) is 1670 nM.

As for `CS(=O)(=O)Nc1ccc(F)c2c1CCCC2c1c[nH]cn1.O=C(O)/C=C\C(=O)O` (stereo not drawn) [Example 44, N-[4-fluoro-5-(1H-imidazol-4-yl)-5,6,7,8-tetrahydro-1-naphthalenyl]methanesulfonamide, maleate], the EC50 at α1A (rabbit urethra) was 4900 nM. Besides, in the assay with Anesthetized Dogs [1], the ED (5 mmHg IUP increase) is 0.844 µmol/kg and the “Mean Selectivity Ratio MAP ED20/IUP ED5” value worked out at 1.0. Also, the inhibition constant Ki in assay [3] (setting [5]) turned out to be 3050 nM.

For `CCS(=O)(=O)Nc1cccc2c1CCCC2c1c[nH]cn1.O=C(O)/C=C\C(=O)O` (single isomer, unassigned; (+)) [Example 33, (+)-N-[5-(1H-imidazol-4-yl)-5,6,7,8-tetrahydro-1-naphthalenyl]ethanesulfonamide, maleate], the EC50 at α1A (rabbit urethra) was 170 nM. In addition, in the assay with Anesthetized Dogs [1], the “Mean Selectivity Ratio MAP ED20/IUP ED5” value is 3.3 and the “Mean IUP ED5” value is given as 10.5 nmol/kg. Moreover, the Ki in assay [3] (setting [5]) was 1080 nM.

Values taken from US6503935B1, “Imidazoles and related compounds as α1A agonists” (Abbott Laboratories, priority 1998, dated 2003).
